In brackets after ≈: the same amount, converted by molar mass.
Experiments:
Propionibacterium acnes = assay: conventional tube dilution test, anaerobic; type: cell-based; conditions: Cutibacterium acnes, medium pH 6.9, read-out: minimum inhibitory concentration
Method: For example, 5-bromo-2-methyl-5-nitro-1,3-dioxane (Compound C) was tested against Propionibacterium acnes (formerly called Corynebacterium acnes) in a conventional tube dilution test. A simultaneous test was run utilizing 2-bromo-2-nitropropane,1,3-diol (Compound A) and 5-bromo-5-nitro-1,3-dioxane (Compound B) as the antimicrobials.
The test against Propionibacterium acnes were run anaerobically in the following medium:
(§1) Distilled water q.s. -- 1000 ml
The pH of the medium was 6.9

Escherichia coli [1] = assay: conventional tube dilution test (Table I); type: cell-based; conditions: 48 h, antibiotic Number 3 medium, two days at 37° C., read-out: Minimum Inhibitory Concentration
Method: (§2) The in vitro antimicrobial activities of Compounds A, B and C, 5-bromo-2-ethyl-5-nitro-1,3-dioxane (Compound D), 5-bromo-5-nitro-2-n-propyl-1,3-dioxane (Compound E), and 5-bromo-2-isopropyl-5-nitro-1,3-dioxane (Compound F) were determined concurrently against Pseudomonas aeruginosa, Staphylococcus aureus, Escherichia coli, and Streptococcus faecalis in a conventional tube dilution test. The medium used was antibiotic Number 3 [CFR 436.102(3)] and the concentration of organisms was 10^4 organisms per ml of medium, with each tube being inoculated with 0.1 ml of inoculum. The figures shown in Table I are the lowest concentrations in mcg of active compound/ml of medium where no growth occurred in the medium after two days' incubation at 37° C.

Pseudomonas aeruginosa [2] = assay: conventional tube dilution test (Table I); type: cell-based; conditions: 48 h, antibiotic Number 3 medium, two days at 37° C., read-out: Minimum Inhibitory Concentration
Method: as §2

Staphylococcus aureus [3] = assay: conventional tube dilution test (Table I); type: cell-based; conditions: 48 h, antibiotic Number 3 medium, two days at 37° C., read-out: Minimum Inhibitory Concentration
Method: as §2

Streptococcus faecalis [4] = assay: conventional tube dilution test (Table I); type: cell-based; conditions: Enterococcus faecalis, 48 h, antibiotic Number 3 medium, two days at 37° C., read-out: Minimum Inhibitory Concentration
Method: as §2

Aspergillus niger [5] = assay: agar plate system (Table II); type: cell-based; conditions: antibiotic medium 22, 72 hours at 30° C., read-out: Minimum Inhibitory Concentration
Method: (§3) The antimicrobial activities of Compounds A, B, C, D, E and F were also determined in an agar plate system. The compounds were added to melted and cooled (50° C.) agar in twofold concentration increments from 50 mcg per ml of agar to 1.56 mcg per ml of agar. Antibiotic medium 1 [CFR 436.102(1)] was used for testing of Pseudomonas aeruginosa, Staphylococcus aureus, Escherichia coli, and Streptococcus faecalis, but antibiotic medium 22 [CFR 436.102(22)] was used for testing of Candida albicans and Aspergillus niger. Organism suspensions containing 10^6 organisms per ml were used as stock suspensions. Sterile cotton swabs were dipped in the suspensions and then streaked across the solidified agar. The figures shown in Table II were the lowest concentrations at which no growth occurred after 72 hours at 30° C. These values were interpreted as the minimum inhibitory concentration (MIC).

Candida albicans [6] = assay: agar plate system (Table II); type: cell-based; conditions: antibiotic medium 22, 72 hours at 30° C., read-out: Minimum Inhibitory Concentration
Method: as §3

Escherichia coli [7] = assay: agar plate system (Table II); type: cell-based; conditions: antibiotic medium 1, 72 hours at 30° C., read-out: Minimum Inhibitory Concentration
Method: as §3

Pseudomonas aeruginosa [8] = assay: agar plate system (Table II); type: cell-based; conditions: antibiotic medium 1, 72 hours at 30° C., read-out: Minimum Inhibitory Concentration
Method: as §3

Staphylococcus aureus [9] = assay: agar plate system (Table II); type: cell-based; conditions: antibiotic medium 1, 72 hours at 30° C., read-out: Minimum Inhibitory Concentration
Method: as §3

Streptococcus faecalis [10] = assay: agar plate system (Table II); type: cell-based; conditions: Enterococcus faecalis, antibiotic medium 1, 72 hours at 30° C., read-out: Minimum Inhibitory Concentration
Method: as §3

Aspergillus fumigatus = assay: In Vitro Antifungal Activity, agar plates (Table III); type: cell-based; conditions: 72 h, three days at 25° C., pH 5.7, read-out: Minimum Inhibitory Concentration
Method: (§4) Compounds A, B, and C were tested further to determine antifungal activity. The compounds were added to melted and cooled (50° C.) agar to obtain concentrations of 100, 50, 25, 12.5, 6.25 and 0.0 mcg per ml of agar. After the agar solidified, sterile cotton swabs were dipped in stock suspensions of the organisms (10^6 organisms per ml of physiological saline) and then streaked across the agar. After three days' incubation at 25° C., concentrations which prevented growth were recorded as the minimal inhibitory concentration. The composition of the medium used in this study was as follows:
(§5) Calcium carbonate -- 0.5 g
(§6) V-8 juice filtrate -- 200.0 ml
as §1
(§7) The pH was adjusted to 5.7.

Aspergillus terreus = assay: as above; type: cell-based; conditions: 72 h, three days at 25° C., pH 5.7, read-out: Minimum Inhibitory Concentration
Method: as §4, §5, §6, §1, §7

Botrytis cinerea = assay: as above; type: cell-based; conditions: 72 h, three days at 25° C., pH 5.7, read-out: Minimum Inhibitory Concentration
Method: as §4, §5, §6, §1, §7

Chaetomium globosum = assay: as above; type: cell-based; conditions: 72 h, three days at 25° C., pH 5.7, read-out: Minimum Inhibitory Concentration
Method: as §4, §5, §6, §1, §7

Colletotrichum phomoides = assay: as above; type: cell-based; conditions: 72 h, three days at 25° C., pH 5.7, read-out: Minimum Inhibitory Concentration
Method: as §4, §5, §6, §1, §7

[11] = test system: Fusarium oxysporum cubense; assay: as above; type: cell-based; conditions: 72 h, three days at 25° C., pH 5.7, read-out: Minimum Inhibitory Concentration
Method: as §4, §5, §6, §1, §7

Microsporum gypseum = assay: as above; type: cell-based; conditions: Nannizzia gypsea, 72 h, three days at 25° C., pH 5.7, read-out: Minimum Inhibitory Concentration
Method: as §4, §5, §6, §1, §7

Penicillium notatum = assay: as above; type: cell-based; conditions: Penicillium chrysogenum, 72 h, three days at 25° C., pH 5.7, read-out: Minimum Inhibitory Concentration
Method: as §4, §5, §6, §1, §7

Rhodotorula glutinis = assay: as above; type: cell-based; conditions: 72 h, three days at 25° C., pH 5.7, read-out: Minimum Inhibitory Concentration
Method: as §4, §5, §6, §1, §7

[12] = test system: Saccharomyces pastorianus; assay: as above; type: cell-based; conditions: 72 h, three days at 25° C., pH 5.7, read-out: Minimum Inhibitory Concentration
Method: as §4, §5, §6, §1, §7

Aspergillus niger [13] = assay: in vitro agar plate determination (Table VII); type: cell-based; conditions: agar plates at 10, 25 and 50 mcg. per ml., 24 hours, read-out: Minimum Inhibitory Concentration
Method: (§8) The antimicrobial activities of […] (Compound G) were determined concurrently with 5-bromo-2-methyl-5-nitro-1,3-dioxane (Compound C) and 5-bromo-5-nitro-1,3-dioxane (Compound B) against the same six organisms shown in Table II. […] The tests were in vitro determinations utilizing agar plates containing the active compound at 10, 25 and 50 mcg. per ml. of agar. The organisms, at concentrations of 10^6 organisms per milliliter, were streaked on the solidified agar. The plates were incubated for 24 hours and the presence or absence of growth noted. The minimum inhibitory concentration (MIC) was determined as the lowest active compound concentration in the agar where no growth occurred.

Candida albicans [14] = assay: in vitro agar plate determination (Table VII); type: cell-based; conditions: agar plates at 10, 25 and 50 mcg. per ml., 24 hours, read-out: Minimum Inhibitory Concentration
Method: as §8

Escherichia coli [15] = assay: in vitro agar plate determination (Table VII); type: cell-based; conditions: agar plates at 10, 25 and 50 mcg. per ml., 24 hours, read-out: Minimum Inhibitory Concentration
Method: as §8

Pseudomonas aeruginosa [16] = assay: in vitro agar plate determination (Table VII); type: cell-based; conditions: agar plates at 10, 25 and 50 mcg. per ml., 24 hours, read-out: Minimum Inhibitory Concentration
Method: as §8

Staphylococcus aureus [17] = assay: in vitro agar plate determination (Table VII); type: cell-based; conditions: agar plates at 10, 25 and 50 mcg. per ml., 24 hours, read-out: Minimum Inhibitory Concentration
Method: as §8

Streptococcus faecalis [18] = assay: in vitro agar plate determination (Table VII); type: cell-based; conditions: Enterococcus faecalis; agar plates at 10, 25 and 50 mcg. per ml., 24 hours; read-out: Minimum Inhibitory Concentration
Method: as §8

human skin [19] = assay: Human Repeated Insult Patch Test, induction series (irritation); conditions: in vivo
Description: The following protocol was followed in testing each compound.
Two-hundred subjects were employed in each investigation.

human skin [20] = conditions: in vivo
Description: Two-hundred subjects were employed in each investigation. The repeated insult technique was used in the patch test. A different group of subjects were utilized for each evaluation.
The technique used for the patch test called for a series of 9 induction patches of each test material to be placed on each of the subjects. The series was followed two weeks later by a single "challenge" patch of each test material to detect skin sensitization.
The series of nine induction patches was applied on Monday, Wednesday and Thursday and allowed to contact the skin for 24 hours, after which time they were removed and the skin sites graded for irritation. Thursday's patches were placed immediately after removal and grading of Wednesday's applications. After the ninth induction patches had been placed, a non-patching period of 2 weeks elapsed before the challenge patches were applied to detect sensitization reactions. For this 24-hour patch, a new skin site was used. This site was invariably chosen adjacent to an induction site; i.e., one where repeated applications had been made during the series of nine induction patches. The challenge applications were graded at 24 and 72 hours after application.
The skin applications for each material were made using oval-shaped adhesive patches (1" × 11/4") with circular gauze centers. The gauze centers were coated with approximately 0.03 ml. of the respective test material just prior to application.
The scoring criteria used for skin irritation reactions and in evaluating the sensitization evidenced on the challenge application follows:
Four separate formulations of each compound were tested along with two formulations of parabens.
A reading of 5 or more on the 8-point scale was deemed to be indicative of the development of skin sensitization to the test compound.

[21] = prior art; cited from earlier work
human skin [22] = conditions: prior art; cited from earlier work
[23] = chemical stability towards pH / alkali; type: physicochemical; conditions: pH 5-9

SMILES	MIC (Propionibacterium acnes) [µg/mL]	MIC (Escherichia coli [1]) [µg/mL]	MIC (Pseudomonas aeruginosa [2]) [µg/mL]	MIC (Staphylococcus aureus [3]) [µg/mL]	MIC (Streptococcus faecalis [4]) [µg/mL]	MIC (Aspergillus niger [5]) [µg/mL]	MIC (Candida albicans [6]) [µg/mL]	MIC (Escherichia coli [7]) [µg/mL]	MIC (Pseudomonas aeruginosa [8]) [µg/mL]	MIC (Staphylococcus aureus [9]) [µg/mL]	MIC (Streptococcus faecalis [10]) [µg/mL]	MIC (Aspergillus fumigatus) [µg/mL]	MIC (Aspergillus terreus) [µg/mL]	MIC (Botrytis cinerea) [µg/mL]	MIC (Chaetomium globosum) [µg/mL]	MIC (Colletotrichum phomoides) [µg/mL]	MIC [11] [µg/mL]	MIC (Microsporum gypseum) [µg/mL]	MIC (Penicillium notatum) [µg/mL]	MIC (Rhodotorula glutinis) [µg/mL]	also measured
O=[N+]([O-])C1(Br)COCOC1 [Compound B, 5-bromo-5-nitro-1,3-dioxane, reference compound]	6.25 (≈ 29.5 µM)	25 (≈ 118 µM)	25 (≈ 118 µM)	25 (≈ 118 µM)	25 (≈ 118 µM)	25 (≈ 118 µM)	12.5 (≈ 59 µM)	6.25 (≈ 29.5 µM)	12.5 (≈ 59 µM)	12.5 (≈ 59 µM)	12.5 (≈ 59 µM)	< 6.25	25 (≈ 118 µM)	50 (≈ 236 µM)	< 6.25	100 (≈ 472 µM)	< 6.25	50 (≈ 236 µM)	25 (≈ 118 µM)	50 (≈ 236 µM)	MIC [12]: 100 µg/mL (≈ 472 µM); MIC (Aspergillus niger [13]): 50 µg/mL (≈ 236 µM); MIC (Candida albicans [14]): 25 µg/mL (≈ 118 µM); MIC (Escherichia coli [15]): < 10 µg/mL; MIC (Pseudomonas aeruginosa [16]): 25 µg/mL (≈ 118 µM); MIC (Staphylococcus aureus [17]): 25 µg/mL (≈ 118 µM); MIC (Streptococcus faecalis [18]): < 10 µg/mL; irritation readings compared with the 2-methyl derivative (human skin [19]): more severe; sensitizing effect (human skin [20]): marked sensitizing effect; subjects evaluated as being sensitive on the challenge test (human skin [20]): 11 subjects; chemical stability towards alkali [21]: does possess chemical stability towards alkali; irritation and sensitization in human subjects (human skin [22]): induces irritation and sensitization in a significant number of human subjects
O=[N+]([O-])C(Br)(CO)CO [Compound A, 2-bromo-2-nitropropane-1,3-diol]	6.25 (≈ 31.3 µM)	12.5 (≈ 62.5 µM)	12.5 (≈ 62.5 µM)	25 (≈ 125 µM)	25 (≈ 125 µM)	> 50	> 50	6.25 (≈ 31.3 µM)	6.25 (≈ 31.3 µM)	12.5 (≈ 62.5 µM)	12.5 (≈ 62.5 µM)	< 6.25	25 (≈ 125 µM)	25 (≈ 125 µM)	< 6.25	> 100	25 (≈ 125 µM)	50 (≈ 250 µM)	100 (≈ 500 µM)	100 (≈ 500 µM)	MIC [12]: > 100 µg/mL; chemical stability towards alkali [21]: chemically unstable towards alkali
CCC1OCC(Br)([N+](=O)[O-])CO1 (centres unmarked) [Compound D, 5-bromo-2-ethyl-5-nitro-1,3-dioxane]	–	25 (≈ 104 µM)	50 (≈ 208 µM)	25 (≈ 104 µM)	25 (≈ 104 µM)	12.5 (≈ 52.1 µM)	6.25 (≈ 26 µM)	12.5 (≈ 52.1 µM)	25 (≈ 104 µM)	12.5 (≈ 52.1 µM)	12.5 (≈ 52.1 µM)	–	–	–	–	–	–	–	–	–	chemical stability at pH [23]: chemically stable at pH's from 5-9
